Among the test systems are NCI/ADR-RES ovarian; OVCAR-5 ovarian; OVCAR-8 ovarian; BT-549 breast; RPMI-8226 leukemia; NCI-H226 lung; OVCAR-4 ovarian; HOP-92 NSCLC; HCT-116 colon; MDA-MB-435.
What all share (test): NCI-60 cell line screen, 48 h

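Test compounds were applied to cells in 96-well plates for 48 hours at 5 doses. Abbreviation: GI50, concentration required for 50% inhibition of growth. TGI denotes the concentration required for complete inhibition of growth.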

Turning to `O=C(CC1(O)C(=O)N(Cc2ccccc2)c2ccc(F)cc21)c1ccc(C(=O)NCC2CCC3(CC2)OOC2(CCCCC2)OO3)cc1` (stereo not given), the GI50 with NCI/ADR-RES ovarian was 0.373 µM; in the assay with OVCAR-5 ovarian, 1.17 µM; in the assay on OVCAR-8 ovarian it was 0.267 µM; in the assay with BT-549 breast, 1.88 µM; in the assay on RPMI-8226 leukemia, 0.365 µM; in the assay with NCI-H226 lung, 1.1 µM. Besides, the GI50 was 1.81 µM with OVCAR-4 ovarian, 0.186 µM in the assay on HOP-92 NSCLC, 1.36 µM in the assay with HCT-116 colon and 0.468 µM in the assay on MDA-MB-435. In addition, the TGI amounted to 1.14 µM with NCI/ADR-RES ovarian; 4.89 µM in the assay with OVCAR-5 ovarian; 0.723 µM in the assay with OVCAR-8 ovarian; 4.28 µM in the assay on BT-549 breast; 1.92 µM with RPMI-8226 leukemia; 4.19 µM in the assay with NCI-H226 lung. Besides, the TGI with OVCAR-4 ovarian turned out to be 4.62 µM; with HOP-92 NSCLC it was 0.378 µM; with HCT-116 colon it was 3.29 µM; in the assay on MDA-MB-435 it was 1.42 µM.
`CS(=O)(=O)CCNCc1nc(-c2ccc3ncnc(Nc4ccc(OCc5cccc(C(F)(F)F)c5)cc4)c3c2)cs1`: the GI50 with NCI/ADR-RES ovarian is above 25 µM; in the assay on OVCAR-5 ovarian, above 25 µM; with OVCAR-8 ovarian it was 11.1 µM; with BT-549 breast, above 25 µM; with RPMI-8226 leukemia, above 25 µM; in the assay on NCI-H226 lung, above 25 µM. For the same molecule, the GI50 is above 25 µM with OVCAR-4 ovarian, 3.68 µM in the assay with HOP-92 NSCLC, above 18.7 µM in the assay with HCT-116 colon and above 25 µM with MDA-MB-435. Also, the TGI with NCI/ADR-RES ovarian, in the assay on OVCAR-5 ovarian, in the assay on OVCAR-8 ovarian, in the assay with BT-549 breast, with RPMI-8226 leukemia and in the assay on NCI-H226 lung was above 25 µM in each case. Besides, the TGI in the assay with OVCAR-4 ovarian was above 25 µM; in the assay with HOP-92 NSCLC, 15.8 µM; with HCT-116 colon, above 25 µM; in the assay with MDA-MB-435, above 25 µM.
With `COc1cc(F)ccc1-c1ncnc(Nc2cccc(CS(C)(=N)=O)c2)n1` (stereo not given), the GI50 with NCI/ADR-RES ovarian is 3.19 µM; in the assay on OVCAR-5 ovarian, 0.827 µM; in the assay with OVCAR-8 ovarian, 1.16 µM; with BT-549 breast it was 1.07 µM; in the assay on RPMI-8226 leukemia it was 3.17 µM; in the assay on NCI-H226 lung, 0.497 µM. Also, the GI50 was 2.4 µM with OVCAR-4 ovarian, 0.671 µM with HOP-92 NSCLC, 0.421 µM in the assay on HCT-116 colon and 1.55 µM with MDA-MB-435. Also, the TGI with NCI/ADR-RES ovarian was above 100 µM; in the assay with OVCAR-5 ovarian it was above 100 µM; with OVCAR-8 ovarian, above 100 µM; in the assay with BT-549 breast it was above 100 µM; in the assay with RPMI-8226 leukemia it was 61 µM; in the assay on NCI-H226 lung, above 100 µM. Further, the TGI is above 100 µM in the assay on OVCAR-4 ovarian, 4.19 µM in the assay on HOP-92 NSCLC, above 100 µM with HCT-116 colon and above 100 µM in the assay on MDA-MB-435.
Take `COc1ccc2c(c1)C(=O)c1c-2c(N2CCN(C(=O)CNCCNCCO)CC2)nc2ccccc12`: the GI50 in the assay with NCI/ADR-RES ovarian is 15 µM; in the assay on OVCAR-5 ovarian, 15.4 µM; with OVCAR-8 ovarian, 10.2 µM; in the assay on BT-549 breast it was 3.67 µM; in the assay with RPMI-8226 leukemia it was 2.04 µM; in the assay with NCI-H226 lung, 10.9 µM. Further, the GI50 in the assay on OVCAR-4 ovarian was 6.71 µM; with HOP-92 NSCLC, 2.47 µM; in the assay on HCT-116 colon, 1.59 µM; in the assay with MDA-MB-435, 8.18 µM. In addition, the TGI was found to be 33.1 µM in the assay with NCI/ADR-RES ovarian; 31 µM in the assay with OVCAR-5 ovarian; 33.8 µM in the assay with OVCAR-8 ovarian; 12.6 µM with BT-549 breast; 4.68 µM with RPMI-8226 leukemia; 29.5 µM with NCI-H226 lung. Also, the TGI with OVCAR-4 ovarian was found to be 19.4 µM; in the assay with HOP-92 NSCLC it was 9.68 µM; with HCT-116 colon it was 3.07 µM; in the assay with MDA-MB-435, 28.5 µM.
Consider `CCSc1ncnc2c1ncn2C1OC(CO)C(O)C1O` (stereo not given), for which the GI50 was 0.432 µM with NCI/ADR-RES ovarian; 0.65 µM with OVCAR-5 ovarian; 0.296 µM in the assay with OVCAR-8 ovarian; 0.729 µM with BT-549 breast; 4.5 µM in the assay with RPMI-8226 leukemia; 0.845 µM in the assay on NCI-H226 lung. Also, the GI50 in the assay on OVCAR-4 ovarian is 9.87 µM; in the assay on HOP-92 NSCLC, 1.98 µM; in the assay on HCT-116 colon, 0.339 µM; in the assay on MDA-MB-435, 0.482 µM. The TGI with NCI/ADR-RES ovarian was above 57.1 µM; with OVCAR-5 ovarian, above 100 µM; with OVCAR-8 ovarian, 16 µM; in the assay on BT-549 breast, above 44.2 µM; in the assay with RPMI-8226 leukemia, above 100 µM; with NCI-H226 lung, above 100 µM. Further, the TGI in the assay with OVCAR-4 ovarian is above 100 µM; in the assay with HOP-92 NSCLC, 12.2 µM; in the assay with HCT-116 colon, above 100 µM; in the assay with MDA-MB-435, above 100 µM.
As to `Cn1cc(C2=C(c3cn(CCCCO)c4ccccc34)C(=O)NC2=O)c2ccccc21`, the GI50 in the assay with NCI/ADR-RES ovarian was 11.2 µM; with OVCAR-5 ovarian, 13.5 µM; with OVCAR-8 ovarian it was 8.61 µM; with BT-549 breast, 8.27 µM; with RPMI-8226 leukemia, 9.23 µM; in the assay with NCI-H226 lung, 7.55 µM. Besides, the GI50 in the assay with OVCAR-4 ovarian was 13.9 µM; in the assay on HOP-92 NSCLC, 17.1 µM; in the assay on HCT-116 colon, 7.63 µM; in the assay with MDA-MB-435, 8.81 µM. For the same molecule, the TGI in the assay on NCI/ADR-RES ovarian is above 25 µM; in the assay with OVCAR-5 ovarian, above 25 µM; in the assay with OVCAR-8 ovarian, 24.8 µM; in the assay on BT-549 breast it was above 19.6 µM; in the assay on RPMI-8226 leukemia, above 25 µM; in the assay on NCI-H226 lung, above 25 µM. In addition, the TGI in the assay with OVCAR-4 ovarian, in the assay on HOP-92 NSCLC, in the assay on HCT-116 colon and with MDA-MB-435 was above 25 µM each time.
